# In patent US12384797B2, “Thioeno[3,2-b] pyridin-7-amine compounds for treating familial dysautonomia” (PTC THERAPEUTICS, INC., priority 2019, dated 2025):
# System: Elongator complex protein 1 (ELP1, also referred to as IKBKAP)
# Test: IKBKAP-HTRF assay (IKBKAP protein in lysates of FD patient-derived fibroblasts)
# Format: cell-based, human
# Details: 48 hours incubation, 7-point concentration curve
# Summary of the method: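 Sandwich HTRF with two labelled anti-IKAP antibodies (overnight, 4 °C) measured IKBKAP in lysates of FD patient fibroblasts. Cells were exposed to compound for 48 h at 37 °C (7-point curve, 3.16-fold steps, triplicates). EC2x is the dose doubling IKBKAP versus DMSO control; MFI is sample ΔF divided by vehicle ΔF.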
SMILES,EC2x for IKBKAP protein expression (concentration producing two times the amount of IKBKAP protein vs DMSO vehicle control),MFI (maximum fold increase in IKBKAP protein abundance relative to the vehicle control)
"N[C@@H](CF)Cc1sc2c(NCc3nccs3)cc(Cl)nc2c1C1CC1 [Compound 87, 2-[(2R)-2-amino-3-fluoropropyl]-5-chloro-3-cyclopropyl-N-[(1,3-thiazol-2-yl)methyl]thieno[3,2-b]pyridin-7-amine]",*** (between >0.02 μM and ≤0.5 μM is indicated by three stars (***)),*** (between >2.9 and ≤3.9 is indicated by three stars (***))
"C[C@H](N)C(=O)c1sc2c(NCc3nccs3)cc(Cl)nc2c1Br [Compound 160, (2S)-2-amino-1-(3-bromo-5-chloro-7-{[(1,3-thiazol-2-yl)methyl]amino}thieno[3,2-b]pyridin-2-yl)propan-1-one]",*** (between >0.02 μM and ≤0.5 μM is indicated by three stars (***)),**** (between >3.9 and ≤4.9 is indicated by four stars (****))
"Cc1c(C[C@H](C)N)sc2c(NCc3ncc(F)s3)cc(Cl)nc12 [Compound 129, 2-[(2S)-2-aminopropyl]-5-chloro-N-[(5-fluoro-1,3-thiazol-2-yl)methyl]-3-methylthieno[3,2-b]pyridin-7-amine]",**** (between >0.005 μM and ≤0.02 μM is indicated by four stars (****)),***** (>4.9 is indicated by five stars (*****))
"Cc1c(C(C)CO)sc2c(NCc3ccco3)cc(Cl)nc12 (centres unmarked) [Compound 146, 2-(5-chloro-7-{[(furan-2-yl)methyl]amino}-3-methylthieno[3,2-b]pyridin-2-yl)propan-1-ol]",* (An EC2x>1 μM is indicated by one star (*)),* (An MFI≤1.9 is indicated by one star (*))
"Cc1c(C[C@H](C)N)sc2c(NCc3ccco3)cc(Cl)nc12 [Compound 18, 2-[(2S)-2-aminopropyl]-5-chloro-N-[(furan-2-yl)methyl]-3-methylthieno[3,2-b]pyridin-7-amine]",***** (≤0.005 μM is indicated by five stars (*****)),***** (>4.9 is indicated by five stars (*****))
"Cc1c(C[C@@H](N)CO)sc2c(NCc3ccco3)cc(Cl)nc12 [Compound 58, (2R)-2-amino-3-(5-chloro-7-{[(furan-2-yl)methyl]amino}-3-methylthieno[3,2-b]pyridin-2-yl)propan-1-ol]",***** (≤0.005 μM is indicated by five stars (*****)),***** (>4.9 is indicated by five stars (*****))
"Cc1c(C[C@H](C)N)sc2c(NCc3ccco3)cc(C#N)nc12 [Compound 20, 2-[(2S)-2-aminopropyl]-7-{[(furan-2-yl)methyl]amino}-3-methylthieno[3,2-b]pyridine-5-carbonitrile]",***** (≤0.005 μM is indicated by five stars (*****)),***** (>4.9 is indicated by five stars (*****))
"Cc1c([C@H](C)N)sc2c(NCc3cccs3)cc(Cl)nc12 [Compound 55, 2-[(1S)-1-aminoethyl]-5-chloro-3-methyl-N-[(thiophen-2-yl)methyl]thieno[3,2-b]pyridin-7-amine]",**** (between >0.005 μM and ≤0.02 μM is indicated by four stars (****)),**** (between >3.9 and ≤4.9 is indicated by four stars (****))
"CC[C@H](N)Cc1sc2c(NCc3nccs3)cc(Cl)nc2c1Cl [Compound 82, 2-[(2S)-2-aminobutyl]-3,5-dichloro-N-[(1,3-thiazol-2-yl)methyl]thieno[3,2-b]pyridin-7-amine]",***** (≤0.005 μM is indicated by five stars (*****)),***** (>4.9 is indicated by five stars (*****))
"Cc1c([C@@H](N)C(C)C)sc2c(NCc3ccco3)cc(Cl)nc12 [Compound 30, 2-[(1S)-1-amino-2-methylpropyl]-5-chloro-N-[(furan-2-yl)methyl]-3-methylthieno[3,2-b]pyridin-7-amine]",* (An EC2x>1 μM is indicated by one star (*)),* (An MFI≤1.9 is indicated by one star (*))
"COC[C@H](N)Cc1sc2c(NCc3ccco3)cc(Cl)nc2c1Cl [Compound 40, 2-[(2R)-2-amino-3-methoxypropyl]-3,5-dichloro-N-[(furan-2-yl)methyl]thieno[3,2-b]pyridin-7-amine]",***** (≤0.005 μM is indicated by five stars (*****)),***** (>4.9 is indicated by five stars (*****))
"Cc1c(C[C@@H](N)C(=O)N(C)c2ccccc2)sc2c(NCc3ccco3)cc(Cl)nc12 [Compound 141, 3-(5-chloro-7-{[(furan-2-yl)methyl]amino}-3-methylthieno[3,2-b]pyridin-2-yl)-N-methyl-N-phenyl-D-alaninamide]",*** (between >0.02 μM and ≤0.5 μM is indicated by three stars (***)),**** (between >3.9 and ≤4.9 is indicated by four stars (****))
"COC(=O)[C@H](N)Cc1sc2c(NCc3ccco3)cc(Cl)nc2c1C [Compound 131, methyl 3-(5-chloro-7-{[(furan-2-yl)methyl]amino}-3-methylthieno[3,2-b]pyridin-2-yl)-D-alaninate]",**** (between >0.005 μM and ≤0.02 μM is indicated by four stars (****)),**** (between >3.9 and ≤4.9 is indicated by four stars (****))
"Cc1c(C[C@@H](N)C(=O)Nc2cnccn2)sc2c(NCc3ccco3)cc(Cl)nc12 [Compound 135, 3-(5-chloro-7-{[(furan-2-yl)methyl]amino}-3-methylthieno[3,2-b]pyridin-2-yl)-N-pyrazin-2-yl-D-alaninamide]",***** (≤0.005 μM is indicated by five stars (*****)),**** (between >3.9 and ≤4.9 is indicated by four stars (****))
"Cc1c(C[C@@H](N)CCF)sc2c(NCc3ccco3)cc(Cl)nc12 [Compound 95, 2-[(2S)-2-amino-4-fluorobutyl]-5-chloro-N-[(furan-2-yl)methyl]-3-methylthieno[3,2-b]pyridin-7-amine]",***** (≤0.005 μM is indicated by five stars (*****)),***** (>4.9 is indicated by five stars (*****))
"N[C@@H](CCF)Cc1sc2c(NCc3ccco3)cc(Cl)nc2c1Br [Compound 97, 2-[(2S)-2-amino-4-fluorobutyl]-3-bromo-5-chloro-N-[(furan-2-yl)methyl]thieno[3,2-b]pyridin-7-amine]",***** (≤0.005 μM is indicated by five stars (*****)),***** (>4.9 is indicated by five stars (*****))
